Laboratory results reported in patent US11274101B2, “Heterocyclic compound” (Takeda Pharmaceutical Company Limited, priority 2017, dated 2022).

Biological target: T1, His-hMAGL (recombinant polyhistidine tagged human MAGL protein) (Homo sapiens, UniProt Q99685)
T1 construct: made in house; host or cells: E. coli BL21(DE3)
T1 sequence (Q99685 1-303): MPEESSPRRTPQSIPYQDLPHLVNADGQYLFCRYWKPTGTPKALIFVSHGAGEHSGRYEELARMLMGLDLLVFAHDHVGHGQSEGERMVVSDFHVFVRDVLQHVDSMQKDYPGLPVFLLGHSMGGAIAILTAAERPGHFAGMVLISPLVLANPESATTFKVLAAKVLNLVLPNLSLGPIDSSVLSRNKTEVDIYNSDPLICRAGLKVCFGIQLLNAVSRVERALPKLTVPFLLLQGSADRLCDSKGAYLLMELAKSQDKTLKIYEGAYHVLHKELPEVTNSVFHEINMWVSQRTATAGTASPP
Assay: Measurement of MAGL inhibitory activity (arachidonic acid production from 2-arachidonylglycerol, RapidFire-mass spectrometry)
Type: biochemical
Details: test compound 10 μM; MAGL inhibitory rate
Protocol: The His-hMAGL obtained above was diluted with enzyme reaction buffer (10 mM Tris-HCl, pH 7.5, 1 mM EDTA, 0.025 (w/v) % Triton X-100, 0.01% Bovine serum albumin) to a concentration of 7.5 ng/mL. To each well of a 384 well assay plate (Greiner 781280) was added a solution (5 μL) of a test compound dissolved in dimethyl sulfoxide (DMSO), which was diluted with the above-mentioned enzyme reaction buffer, then His-hMAGL solution (5 μL) diluted to a concentration of 7.5 ng/mL was added, and the mixture was incubated at room temperature for 60 min. Thereafter, to each well was added 5 μL of 150 μM 2-arachidonylglycerol (Tocris Bioscience), and the mixture was incubated at room temperature for 10 min. Then, 10 μL of 2% formic acid (Wako Pure Chemical Industries, Ltd.) was added to stop the reaction. Furthermore, acetonitrile (50 μL) containing 3 μM arachidonic acid-d8 (Cayman Chemical Company) was added and the mixture was stirred.
The amount of arachidonic acid in the obtained enzyme reaction mixture was calculated by measuring by RapidFire-mass spectrometry and correcting by the amount of arachidonic acid-d8. High Throughput online solid phase extraction was performed using RapidFire 300™ system (Agilent Technologies, Inc.). Samples were loaded on SPE C4 cartridge (Agilent Technologies, Inc.) and desalted with 0.2 (v/v) % acetic acid (Wako Pure Chemical Industries, Ltd.) in ultrapure water/acetonitrile (70/30, v/v) at a flow rate of 1.5 mL/min, eluted at a flow rate of 0.5 mL/min with 0.2 (v/v) % acetic acid dissolved in acetonitrile/ultrapure water (90/10, v/v), and injected into the mass spectrometry part. The injection needle was washed with ultrapure water (500 millisecond) and acetonitrile (500 millisecond) to minimize carry-over. The suction time (injection loop 5 μL), load/cleansing time, elution time and re-equilibration time were adjusted to 300, 3000, 4250 and 1000 milliseconds, respectively, and the total cycle time was adjusted to about 10.0 seconds. The RapidFire300 system was controlled by RapidFire UI software version 3.6 (Agilent Technologies, Inc.).
The mass spectrometry of the resultant product was performed using API4000™ triple quadrupole mass spectrometer (AB SCIEX) equipped with an electrospray ion sauce (TurboIon Spray™) in a negative selected reaction monitoring (SRM) mode. The conditions of SRM are shown below. The parameters of the instrument were optimized as follows: capillary temperature 600° C., ion spray voltage −4.5 kV, collision gas 8, curtain gas 15 psi, ion source gas 1 60 psi, ion source gas 2 60 psi. The mass spectrometer was controlled by Analyst™ software version 1.5.1 (AB SCIEX). The peak area integration was analyzed using RapidFire integrator software version 3.6 (Agilent Technologies, Inc.).
MAGL inhibitory rate (%) was calculated according to the following calculation formula. (1-(arachidonic acid production amount of test compound addition group−arachidonic acid production amount of enzyme-free group)+(arachidonic acid production amount of test compound-free group−arachidonic acid production amount of enzyme-free group))×100

| inhibition at 10 µM [%] | Structure (SMILES) |
| --- | --- |
| 100 | Cc1cc(COC[C@H]2C[C@@H](OC(=O)N3CC4(COC(=O)N4)C3)C2)ccc1Cl [Example 29, cis-3-(((4-chloro-3-methylbenzyl)oxy)methyl)cyclobutyl 6-oxo-7-oxa-2,5-diazaspiro [3.4]octane-2-carboxylate] |
| 100 | O=C1NC2(CO1)CN(C(=O)O[C@H]1C[C@@H](COCc3ccc(F)cc3Cl)C1)C2 [Example 30, cis-3-(((2-chloro-4-fluorobenzyl)oxy)methyl)cyclobutyl 6-oxo-7-oxa-2,5-diazaspiro[3.4]octane-2-carboxylate] |
| 100 | O=C1NC2(CO1)CN(C(=O)O[C@H]1C[C@@H](COCc3ccc(F)c(F)c3F)C1)C2 [Example 31, cis-3-(((2,3,4-trifluorobenzyl)oxy)methyl)cyclobutyl 6-oxo-7-oxa-2,5-diazaspiro[3.4]octane-2-carboxylate] |
| 100 | O=C1NC2(CO1)CN(C(=O)O[C@H]1C[C@@H](COCc3cc(F)c(F)cc3F)C1)C2 [Example 32, cis-3-(((2,4,5-trifluorobenzyl)oxy)methyl)cyclobutyl 6-oxo-7-oxa-2,5-diazaspiro [3.4]octane-2-carboxylate] |
| 101 | O=C1NC2(CO1)CN(C(=O)O[C@H]1C[C@@H](COCc3c(F)cc(F)cc3F)C1)C2 [Example 33, cis-3-(((2,4,6-trifluorobenzyl)oxy)methyl)cyclobutyl 6-oxo-7-oxa-2,5-diazaspiro[3.4]octane-2-carboxylate] |
| 99 | O=C1NC2(CO1)CN(C(=O)O[C@H]1C[C@H](Oc3ccc(C(F)(F)F)cc3F)C1)C2 [Example 34, trans-3-(2-fluoro-4-(trifluoromethyl)phenoxy)cyclobutyl 6-oxo-7-oxa-2,5-diazaspiro[3.4]octane-2-carboxylate] |
| 100 | O=C1NC2(CCN(C(=O)O[C@H]3C[C@@H](COc4ccc(F)c(F)c4F)C3)C2)CO1 (stereo partly drawn) [Example 35, cis-3-((2,3,4-trifluorophenoxy)methyl)cyclobutyl 2-oxo-3-oxa-1,7-diazaspiro[4.4]nonane-7-carboxylate] |
| 100 | O=C1NC2(CO1)CN(C(=O)O[C@H]1C[C@@H](COCc3ccc(C(F)(F)F)cc3F)C1)C2 [Example 36, cis-3-(((2-fluoro-4-(trifluoromethyl)benzyl)oxy)methyl)cyclobutyl 6-oxo-7-oxa-2,5-diazaspiro[3.4]octane-2-carboxylate] |
| 101 | O=C1NC2(CO1)CN(C(=O)O[C@H]1CC[C@H](Oc3ccc(C(F)(F)F)cc3F)CC1)C2 [Example 37, trans-4-(2-fluoro-4-(trifluoromethyl)phenoxy)cyclohexyl 6-oxo-7-oxa-2,5-diazaspiro[3.4]octane-2-carboxylate] |
| 102 | O=C1NC2(CO1)CN(C(=O)O[C@H]1CC[C@@H](Oc3ccc(C(F)(F)F)cc3F)CC1)C2 [Example 38, cis-4-(2-fluoro-4-(trifluoromethyl)phenoxy)cyclohexyl 6-oxo-7-oxa-2,5-diazaspiro[3.4]octane-2-carboxylate] |
| 100 | O=C1NC2(CO1)CN(C(=O)O[C@H]1C[C@H](Oc3ccc(F)c(F)c3F)C1)C2 [Example 39, trans-3-(2,3,4-trifluorophenoxy)cyclobutyl 6-oxo-7-oxa-2,5-diazaspiro[3.4]octane-2-carboxylate] |
| 100 | O=C1NC2(CO1)CN(C(=O)O[C@H]1C[C@@H](OCc3ccc(F)cc3F)C1)C2 [Example 40, cis-3-((2,4-difluorobenzyl)oxy)cyclobutyl 6-oxo-7-oxa-2,5-diazaspiro[3.4]octane-2-carboxylate] |
| 99 | O=C1NC2(CO1)CN(C(=O)O[C@H]1C[C@@H](OCc3ccc(F)c(F)c3)C1)C2 [Example 41, cis-3-((3,4-difluorobenzyl)oxy)cyclobutyl 6-oxo-7-oxa-2,5-diazaspiro[3.4]octane-2-carboxylate] |
| 99 | O=C1NC2(CO1)CN(C(=O)O[C@H]1C[C@H](OCc3ccccc3)C1)C2 [Example 42, trans-3-(benzyloxy)cyclobutyl 6-oxo-7-oxa-2,5-diazaspiro[3.4]octane-2-carboxylate] |
| 102 | O=C1NC2(CO1)CN(C(=O)O[C@H]1C[C@H](Oc3c(F)cc(F)cc3F)C1)C2 [Example 43, trans-3-(2,4,6-fluorophenoxy)cyclobutyl 6-oxo-7-oxa-2,5-diazaspiro[3.4]octane-2-carboxylate] |
| 103 | O=C1NC2(CO1)CN(C(=O)O[C@H]1C[C@@H](Oc3ccc(F)cc3Cl)C1)C2 [Example 44, cis-3-(2-chloro-4-fluorophenoxy)cyclobutyl 6-oxo-7-oxa-2,5-diazaspiro[3.4]octane-2-carboxylate] |
| 98 | Cc1ccc(O[C@H]2C[C@@H](OC(=O)N3CC4(COC(=O)N4)C3)C2)cc1F [Example 45, cis-3-(3-fluoro-4-methylphenoxy)cyclobutyl 6-oxo-7-oxa-2,5-diazaspiro[3.4]octane-2-carboxylate] |
| 100 | O=C1NC2(CO1)CN(C(=O)O[C@H]1C[C@@H](Oc3ccc(Cl)cc3)C1)C2 [Example 47, cis-3-(4-chlorophenoxy)cyclobutyl 6-oxo-7-oxa-2,5-diazaspiro[3.4]octane-2-carboxylate] |
| 100 | O=C1NC2(CO1)CN(C(=O)O[C@H]1C[C@@H](Oc3ccc(C(F)(F)F)cc3)C1)C2 [Example 48, cis-3-(4-(trifluoromethyl)phenoxy)cyclobutyl 6-oxo-7-oxa-2,5-diazaspiro[3.4]octane-2-carboxylate] |
| 100 | O=C1NC2(CO1)CN(C(=O)O[C@H]1C[C@@H](Oc3cccc(Cl)c3)C1)C2 [Example 49, cis-3-(3-chlorophenoxy)cyclobutyl 6-oxo-7-oxa-2,5-diazaspiro[3.4]octane-2-carboxylate] |
| 99 | Cc1cc(O[C@H]2C[C@@H](OC(=O)N3CC4(COC(=O)N4)C3)C2)ccc1F [Example 50, cis-3-(4-fluoro-3-methylphenoxy)cyclobutyl 6-oxo-7-oxa-2,5-diazaspiro[3.4]octane-2-carboxylate] |
| 99 | O=C1NC2(CO1)CN(C(=O)O[C@H]1C[C@@H](Oc3ccc(F)c(F)c3F)C1)C2 [Example 51, cis-3-(2,3,4-trifluorophenoxy)cyclobutyl 6-oxo-7-oxa-2,5-diazaspiro[3.4]octane-2-carboxylate] |
| 100 | O=C1NC2(CO1)CN(C(=O)O[C@H]1C[C@@H](Oc3ccccc3Cl)C1)C2 [Example 52, cis-3-(2-chlorophenoxy)cyclobutyl 6-oxo-7-oxa-2,5-diazaspiro[3.4]octane-2-carboxylate] |
| 101 | Cc1ccc(O[C@H]2C[C@@H](OC(=O)N3CC4(COC(=O)N4)C3)C2)cc1 [Example 53, cis-3-(4-methylphenoxy)cyclobutyl 6-oxo-7-oxa-2,5-diazaspiro[3.4]octane-2-carboxylate] |
| 100 | O=C1NC2(CO1)CN(C(=O)O[C@H]1C[C@@H](Oc3ccc(Cl)cc3F)C1)C2 [Example 54, cis-3-(4-chloro-2-fluorophenoxy)cyclobutyl 6-oxo-7-oxa-2,5-diazaspiro[3.4]octane-2-carboxylate] |
| 100 | Cc1cc(F)ccc1O[C@H]1C[C@@H](OC(=O)N2CC3(COC(=O)N3)C2)C1 [Example 55, cis-3-(4-fluoro-2-methylphenoxy)cyclobutyl 6-oxo-7-oxa-2,5-diazaspiro[3.4]octane-2-carboxylate] |
